Assay results from PubChem BioAssay AID328 (DTP/NCI, 2004).
Toxic doses and inconclusive results are not listed.

System: BDF1 mice, P388 leukemia ip, median survival T/C
Experiment: NCI In Vivo Anticancer Drug Screen. Data for tumor model P388 Leukemia (intraperitoneal) in B6D2F1 (BDF1) mice
Conditions: endpoint: median survival time, higher = longer survival
In short: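 Reported as T/C, where T is the survival measurement in dosed animals and C the same measurement in vehicle controls.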

[1] = dose: 100.0 mg/kg/injection, schedule: Q01DX009 (ip), vehicle: saline with Tween-80
[2] = dose: 200.0 mg/kg/injection, schedule: Q01DX009 (ip), vehicle: saline with Tween-80
[3] = dose: 400.0 mg/kg/injection, schedule: Q01DX009 (ip), vehicle: saline with Tween-80
[4] = dose: 100.0 mg/kg/injection, schedule: Q04DX003 (ip), vehicle: saline with Tween-80
[5] = dose: 200.0 mg/kg/injection, schedule: Q04DX003 (ip), vehicle: saline with Tween-80
[6] = dose: 400.0 mg/kg/injection, schedule: Q04DX003 (ip), vehicle: saline with Tween-80
[7] = dose: 200.0 mg/kg/injection, schedule: Q04DX003 (ip), vehicle: Klucel (hydroxypropylcellulose) (HPC)
[8] = dose: 400.0 mg/kg/injection, schedule: Q04DX003 (ip), vehicle: Klucel (hydroxypropylcellulose) (HPC)

Nc1nc(N)nc(-c2ccc([N+](=O)[O-])o2)n1
T/C [1]: 102 % of control
T/C [2]: 96 % of control
T/C [3]: 106 % of control

CCCNC(=O)Nc1ccc(C(=O)OCC(C)C)cc1
T/C [4]: 104 % of control
T/C [5]: 100 % of control
T/C [6]: 100 % of control

[NH-]C(CO)C(=O)O.[NH-]C(CO)C(=O)O.[Pt+2] (stereo not given)
T/C (dose: 12.5 mg/kg/injection, schedule: Q01DX009 (ip), vehicle: distilled water + Tween-80): 115 % of control
T/C (dose: 25.0 mg/kg/injection, schedule: Q01DX009 (ip), vehicle: distilled water + Tween-80): 117 % of control
T/C (dose: 50.0 mg/kg/injection, schedule: Q01DX009 (ip), vehicle: distilled water + Tween-80): 115 % of control
T/C (dose: 100.0 mg/kg/injection, schedule: Q01DX009 (ip), vehicle: distilled water + Tween-80): 115 % of control

CC(O)C(O)C(O)C(O)/C=N/O (stereo not given)
T/C [7]: 92 % of control
T/C [8]: 88 % of control

O=C(O)C1C2CCCCC21 (stereo not given)
T/C [1]: 109 % of control
T/C (dose: 100.0 mg/kg/injection, schedule: Q01DX009 (ip), vehicle: saline): 113 % of control
T/C [2]: 100 % of control
T/C (dose: 200.0 mg/kg/injection, schedule: Q01DX009 (ip), vehicle: saline): 109 % of control
T/C [3]: 95 % of control
T/C (dose: 400.0 mg/kg/injection, schedule: Q01DX009 (ip), vehicle: saline): 104 % of control

O=C(c1ccccc1)C(Br)c1ccc([N+](=O)[O-])cc1 (stereo not given)
T/C (dose: 100.0 mg/kg/injection, schedule: Q04DX003 (ip), vehicle: Klucel (hydroxypropylcellulose) (HPC)): 100 % of control
T/C [7]: 90 % of control
T/C [8]: 100 % of control

C[n+]1c(/C=C/c2ccc(O)c3ncccc23)[se]c2ccccc21
T/C (dose: 0.25 mg/kg/injection, schedule: Q01DX010 (ip), vehicle: saline): 104 % of control
T/C (dose: 0.5 mg/kg/injection, schedule: Q01DX010 (ip), vehicle: saline): 118 % of control
T/C (dose: 1.0 mg/kg/injection, schedule: Q01DX010 (ip), vehicle: saline): 104 % of control
T/C (dose: 1.5 mg/kg/injection, schedule: Q01DX010 (ip), vehicle: acetone): 165 % of control
T/C (dose: 3.0 mg/kg/injection, schedule: Q01DX010 (ip), vehicle: acetone): 165 % of control
T/C (dose: 3.0 mg/kg/injection, schedule: Q01DX010 (ip), vehicle: saline): 122 % of control
T/C (dose: 6.0 mg/kg/injection, schedule: Q01DX010 (ip), vehicle: acetone): 185 % of control
T/C (dose: 25.0 mg/kg/injection, schedule: Q01DX010 (ip), vehicle: saline): 118 % of control

CCC[CH2][Sn-]([CH2]CCC)([CH2]CCC)[O]c1cc(Cl)c(Cl)cc1Cl
T/C (dose: 0.37 mg/kg/injection, schedule: Q01DX009 (ip), vehicle: Klucel (hydroxypropylcellulose) (HPC)): 100 % of control
T/C (dose: 0.75 mg/kg/injection, schedule: Q01DX009 (ip), vehicle: Klucel (hydroxypropylcellulose) (HPC)): 100 % of control
T/C (dose: 1.5 mg/kg/injection, schedule: Q01DX009 (ip), vehicle: Klucel (hydroxypropylcellulose) (HPC)): 100 % of control
T/C (dose: 3.0 mg/kg/injection, schedule: Q01DX009 (ip), vehicle: Klucel (hydroxypropylcellulose) (HPC)): 110 % of control
T/C (dose: 6.0 mg/kg/injection, schedule: Q01DX009 (ip), vehicle: Klucel (hydroxypropylcellulose) (HPC)): 89 % of control

CCCCOB(/C=C/Sc1ccccc1)OCCCC
T/C [1]: 120 % of control
T/C [4]: 115 % of control
T/C (dose: 132.0 mg/kg/injection, schedule: Q01DX009 (ip), vehicle: saline with Tween-80): 118 % of control
T/C [5]: 120 % of control
T/C (dose: 300.0 mg/kg/injection, schedule: Q01DX009 (ip), vehicle: saline with Tween-80): 122 % of control
T/C [6]: 110 % of control

Cc1ccccc1C(O)c1ccccc1Cl (stereo not given)
T/C (dose: 100.0 mg/kg/injection, schedule: Q01DX001 (ip), vehicle: saline sonified): 100 % of control
T/C (dose: 200.0 mg/kg/injection, schedule: Q01DX001 (ip), vehicle: saline sonified): 100 % of control
T/C (dose: 400.0 mg/kg/injection, schedule: Q01DX001 (ip), vehicle: saline sonified): 100 % of control

Cc1ccc2c(c1)nc1c3ccccc3nc(-c3ccccc3N)n21
T/C [1]: 97 % of control
T/C [2]: 115 % of control
T/C [3]: 108 % of control

NC(=S)N/N=C\c1nccc2c(C(F)(F)F)cccc12
T/C (dose: 25.0 mg/kg/injection, schedule: Q04DX003 (ip), vehicle: saline with Tween-80): 106 % of control

CC1(C)OCC(C2OC3OC(C)(C)OC3C2O)O1 (stereo not given)
T/C (dose: 20.0 mg/kg/injection, schedule: Q01DX009 (ip), vehicle: saline): 107 % of control
T/C (dose: 40.0 mg/kg/injection, schedule: Q01DX009 (ip), vehicle: saline): 109 % of control
T/C (dose: 80.0 mg/kg/injection, schedule: Q01DX009 (ip), vehicle: saline): 108 % of control
